This note sets out measurements from BindingDB's records for patent US11034692 (Genentech, 2021).

pKi: −log10 of the molar value.

The target in the experiment is Mitogen-activated protein kinase kinase kinase kinase 1 (Homo sapiens, UniProt Q92918). As to the kind of experiment: Binding Assay. The protocol: Lanth: For the binding assay, 4 ul 2×HPK1 and Eu-anti-GST antibody were added to each well of the assay plate using a Multidrop reagent dispenser. The solutions were incubated in a 23 C incubator for 1 h. To each well of the assay plate was added 4 ul 2× Tracer-222 using a Multidrop reagent dispenser. The solutions were again incubated in a 23 C incubator for 1 h. The results of the assay were read using an Envision plate reader with the following parameters: TR_FRET, 340ex/615 and 665em; 100 usec Delay; and 200 usec integration.
Chain of Mitogen-activated protein kinase kinase kinase kinase 1 (Q92918 whole entry): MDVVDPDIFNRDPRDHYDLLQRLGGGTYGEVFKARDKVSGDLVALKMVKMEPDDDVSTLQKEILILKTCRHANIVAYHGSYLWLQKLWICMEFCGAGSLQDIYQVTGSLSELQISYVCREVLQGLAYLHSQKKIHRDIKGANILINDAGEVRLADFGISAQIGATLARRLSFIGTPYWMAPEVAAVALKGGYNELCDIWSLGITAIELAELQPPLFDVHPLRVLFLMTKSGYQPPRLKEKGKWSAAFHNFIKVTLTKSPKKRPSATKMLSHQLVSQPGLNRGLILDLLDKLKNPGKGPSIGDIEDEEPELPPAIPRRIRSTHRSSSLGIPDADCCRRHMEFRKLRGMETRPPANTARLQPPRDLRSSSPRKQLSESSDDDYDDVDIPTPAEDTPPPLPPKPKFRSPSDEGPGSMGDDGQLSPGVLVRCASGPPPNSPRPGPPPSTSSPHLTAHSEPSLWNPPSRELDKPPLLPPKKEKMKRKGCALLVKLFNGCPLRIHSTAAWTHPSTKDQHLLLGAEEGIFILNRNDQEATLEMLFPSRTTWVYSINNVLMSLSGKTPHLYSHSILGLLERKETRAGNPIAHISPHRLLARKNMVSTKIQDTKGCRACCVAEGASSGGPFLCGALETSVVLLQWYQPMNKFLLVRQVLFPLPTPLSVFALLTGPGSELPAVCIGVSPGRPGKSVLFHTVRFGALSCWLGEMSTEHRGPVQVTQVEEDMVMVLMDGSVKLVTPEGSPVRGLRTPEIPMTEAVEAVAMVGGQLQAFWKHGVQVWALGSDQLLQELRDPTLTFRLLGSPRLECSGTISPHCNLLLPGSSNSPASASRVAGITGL

By pKi is commonly meant the negative decadic logarithm of the Ki, by convention in mol/L. A low value points to a large Ki. Consider `Cn1cc(-c2cc3cc(NC(=O)[C@H]4C[C@H]4F)ncc3c(N)n2)cn1` [US11034692, Compound 4], for which the pKi is 8.54.
